Results as given in patent publication US5968751A, “Method for detecting the presence of protein C antibody in a fluid sample” (The Scripps Research Institute, priority 1997, dated 1999).
No end group written: not given here.

Experiments:
Format in all cases: biochemical
APC [1] = biological target: T1, APC (Homo sapiens, UniProt P04070); assay: APC-catalyzed inactivation of Factor Va, residual Va by prothrombinase assay; set-up: Protein C consists of a 155 amino acid residue light chain and a 262 amino acid residue heavy chain; from tissue; Factor Va a gift (Tans and Rosing, Univ. of Limburg)
Description: The APC catalyzed inactivation of Factor Va assays were performed in 96-well flat bottom ELISA plates (Stockwell Scientific, Walnut, Calif.). The reactions were performed either in the presence or absence of phospholipid vesicles to determine if either PC311-325 or PC142-155 inhibited APC anticoagulant activity by inhibiting the binding of APC or its substrate to phospholipids or if it was independent of phospholipid surfaces. This determination was relevant in light of reports that the assembly of APC with its substrates Va and VIIIa on the phospholipid surface appeared to be mediated mainly by the Gla-domain of APC in the presence of calcium which was crucial for exerting significant anticoagulant activity. [Sugo et al., J. Biol. Chem., 260:10453-10457 (1985); […] et al., J. Biol. Chem., 261:9684-9693 (1986); Solymoss et al., J. Biol. Chem., 263:14884-14890 (1988)]. For the preparation of phospholipid residues for use in the assay bovine brain phosphatidylserine in chloroform […]/methanol (CH3 OH) and soybean phosphatidylcholine (Type III-S, CCl4 solution) were purchased from Sigma and were reported to be at least 98% homogeneous (supplier's estimates). To prepare vesicles, phosphatidylserine was admixed with phosphatidylcholine (20% phosphatidylserine/80% phosphatidylcholine; M/M) and the organic solvent evaporated under a stream of nitrogen. The resultant phospholipid admixture was resuspended in 0.05 M TBS-Az at pH 7.4 as a 1.25 mM solution by vortexing. Single bilayer vesicles were obtained during sonication by direct probe (Heat-Systems-Ultrasonics, Inc., […] Sonicator) for 6×30 second bursts at 30 W in 2 minute intervals at 4° C. The reaction buffer consisted of 0.05 M Tris-HCl, at pH 7.4 containing 0.1 M NaCl, 0.02% NaN3, 0.5% BSA and 2.5 mM CaCl2. […] M/M) either at 22° C. (in the presence of phospholipids) or at 37° C. (in the absence of phospholipids). […] The monoclonal antibody C3 which specifically recognizes the light-chain of PC as well as APC was prepared as in Example 2. Factor Va (a gift from Drs. Tans and Rosing, Univ. of Limburg, the Netherlands) was first admixed with or without PC311-325 or PC142-155 and maintained for 20 minutes either at 22° C. or at 37° C. prior to admixture with APC. […] Factor Va was determined via its cofactor activity in the activation of prothrombin by Factor Xa. […] The molar concentration of Factor Xa was determined by active site titration as described by Chase et al., Biochem. Biophys. […]
Target sequence in this assay (P12259 29-737 partner limits assumed): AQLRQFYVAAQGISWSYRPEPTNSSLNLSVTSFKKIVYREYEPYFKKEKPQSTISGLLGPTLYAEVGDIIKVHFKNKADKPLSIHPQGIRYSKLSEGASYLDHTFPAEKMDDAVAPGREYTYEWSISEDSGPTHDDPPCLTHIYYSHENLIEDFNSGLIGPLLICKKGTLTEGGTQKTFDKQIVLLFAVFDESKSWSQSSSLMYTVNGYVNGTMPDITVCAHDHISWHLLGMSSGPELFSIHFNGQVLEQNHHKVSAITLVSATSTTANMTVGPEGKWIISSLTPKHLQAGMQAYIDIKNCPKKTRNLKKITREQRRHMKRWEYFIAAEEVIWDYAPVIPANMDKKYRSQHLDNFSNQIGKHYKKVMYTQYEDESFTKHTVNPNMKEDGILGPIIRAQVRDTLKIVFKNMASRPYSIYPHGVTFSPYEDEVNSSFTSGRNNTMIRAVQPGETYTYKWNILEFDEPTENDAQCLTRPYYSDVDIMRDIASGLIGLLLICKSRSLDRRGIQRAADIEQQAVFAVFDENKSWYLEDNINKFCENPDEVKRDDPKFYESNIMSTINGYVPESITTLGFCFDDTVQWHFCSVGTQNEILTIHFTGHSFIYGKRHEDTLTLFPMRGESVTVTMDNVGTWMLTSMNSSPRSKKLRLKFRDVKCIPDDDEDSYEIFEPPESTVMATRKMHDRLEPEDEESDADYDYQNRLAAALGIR
Target sequence in this assay (P12259 1574-2224 partner limits assumed): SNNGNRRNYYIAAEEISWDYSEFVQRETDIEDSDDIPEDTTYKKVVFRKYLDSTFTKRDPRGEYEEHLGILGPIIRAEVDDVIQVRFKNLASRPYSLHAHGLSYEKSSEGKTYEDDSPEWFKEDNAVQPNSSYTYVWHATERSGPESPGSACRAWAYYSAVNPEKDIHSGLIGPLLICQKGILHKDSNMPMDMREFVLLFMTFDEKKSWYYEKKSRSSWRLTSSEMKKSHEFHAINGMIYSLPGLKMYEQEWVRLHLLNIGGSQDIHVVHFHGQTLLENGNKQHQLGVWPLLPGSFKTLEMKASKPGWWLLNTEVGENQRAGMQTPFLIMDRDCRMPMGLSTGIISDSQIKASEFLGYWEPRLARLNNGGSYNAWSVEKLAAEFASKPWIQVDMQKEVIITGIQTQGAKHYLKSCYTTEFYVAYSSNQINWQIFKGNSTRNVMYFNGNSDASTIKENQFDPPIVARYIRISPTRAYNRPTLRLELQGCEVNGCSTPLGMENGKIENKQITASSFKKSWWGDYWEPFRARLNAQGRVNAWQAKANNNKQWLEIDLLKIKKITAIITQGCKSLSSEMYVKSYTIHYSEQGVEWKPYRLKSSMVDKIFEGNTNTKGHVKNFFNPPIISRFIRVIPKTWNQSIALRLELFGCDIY
Target sequence in this assay (P04070 43-197 limits assumed): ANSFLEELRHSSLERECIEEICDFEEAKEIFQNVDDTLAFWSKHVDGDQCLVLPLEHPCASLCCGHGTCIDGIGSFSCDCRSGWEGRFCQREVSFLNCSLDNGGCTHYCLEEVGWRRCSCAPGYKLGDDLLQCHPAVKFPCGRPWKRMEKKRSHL
Target sequence in this assay (P04070 212-450 limits assumed): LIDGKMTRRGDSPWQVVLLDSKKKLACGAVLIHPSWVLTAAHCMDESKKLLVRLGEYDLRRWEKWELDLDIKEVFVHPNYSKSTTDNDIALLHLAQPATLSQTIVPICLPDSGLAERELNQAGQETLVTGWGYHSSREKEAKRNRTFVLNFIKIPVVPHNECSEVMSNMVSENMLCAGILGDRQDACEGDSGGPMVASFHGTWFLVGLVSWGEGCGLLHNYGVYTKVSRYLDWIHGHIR

APC [2] = biological target: T1, APC; assay: amidolytic activity of APC towards S-2366; set-up: Protein C consists of a 155 amino acid residue light chain and a 262 amino acid residue heavy chain; from tissue; host or cells: human plasma factor IX concentrate; settings: for Change in A405 /5 minutes: 10 nM APC, 250 μM PC311-325, 500 μM PC142-155, 30 minutes at 37° C., S-2366
Description: The amidolytic activity of APC toward the peptide substrate S-2366 was measured in the presence of various PC synthetic peptides derived from both the heavy and light chain, prepared in Example 1. For the assay, 100 μl of 10 nM APC, prepared in Example 2c2), were admixed with separate aliquots of 250 μM of PC311-325 and 500 μM Df PC142-155 prepared in TBS-BSA at pH 7.4 containing 0.02% NaN3 and 2 mM CaCl2 to form APC-peptide admixtures. After maintenance of the admixtures for 30 minutes at 37° C., 50 μl of 2.4 mM S-2366 in the same buffer were admixed to initiate the amidolytic reaction. The hydrolysis of the substrate was monitored by the change in absorbance at 405 nm at 37° C. over time using an EL312 Microplate Bio-Kinetics Reader (BIO-TEK Instruments, Inc. Vermont.). All data are mean values of duplicate measurements.
The amidolytic activity of APC toward the peptide substrate S-2366 was measured in the presence of anti-PC317-331 antibody. For the assay, 100 μl of 15 nM APC, prepared in Example 2c2), were admixed with separate aliquots of anti-PC317-331 antibody ranging in concentration from […] prepared in TBS-BSA at pH 7.4 containing 0.02% NaN3 and 2 mM CaCl2 to form APC-anti-PC317-331 antibody immunoreaction admixtures. After maintenance of the admixtures for 30 minutes at 37° C. to allow formation of immunoreaction products, 50 μl of 2.4 mM S-2366 in the same buffer was admixed to initiate the amidolytic reaction. The hydrolysis of the substrate was monitored by the change in absorbance at 405 nm over time using an EL312 Microplate Bio-Kinetics Reader (BIO-TEK Instruments, Inc. Vermont.).
Target sequence in this assay (P04070 43-197 limits assumed): as the sequence (P04070 43-197 limits assumed) above
Target sequence in this assay (P04070 212-450 limits assumed): as the sequence (P04070 212-450 limits assumed) above

thrombin = thrombin (Homo sapiens, UniProt P00734); assay: clotting of purified fibrinogen by thrombin

inhibition at 500 µM (APC [1]; absence of phospholipids, 500 μM PC142-155) | Molecule | rate of Factor Va inactivation (%Vi /min) (APC [1]; absence of phospholipids, 5 nM APC, 40 nM Va, 50 μM PC311-325) | IC50 (APC [1]; presence of phospholipid vesicles, read-out: half-maximal inhibition of the APC-catalyzed inactivation of Factor Va) | inhibition at 50 µM (APC [1]; read-out: inhibition of APC activity) | Change in A405 /5 minutes (APC [2]) | effect on APC amidolytic activity towards S-2366 (APC [2]; up to 250 μM PC311-325 or 500 μM PC142-155, 30 min at 37° C.) | effect on the clotting of purified fibrinogen by thrombin (thrombin)
87% | CSCC[C@H](NC(=O)[C@H](CCCNC(=N)N)NC(=O)[C@H](CCCCN)NC(=O)[C@H](Cc1c[nH]c2ccccc12)NC(=O)[C@@H]1CCCN1C(=O)[C@H](CCCNC(=N)N)NC(=O)CN)C(=O)N[C@@H](CCC(=O)O)C(=O)N[C@@H](CCCCN)C(=O)N[C@@H](CCCCN)C(=O)N[C@@H](CCCNC(=N)N)C(=O)N[C@@H](CO)C(=O)N[C@@H](Cc1c[nH]cn1)C(=O)N[C@@H](CC(C)C)C(=O)N[C@@H](CS)C(N)=O [PC142-155, Gly-Arg-Pro-Trp-Lys-Arg-Met-Glu-Lys-Lys-Arg-Ser-His-Leu] |  |  |  |  |  | 
 | KRNRTFVLNFIKIPV-NH2 [PC311-325, Lys-Arg-Asn-Arg-Thr-Phe-Val-Leu-Asn-Phe-Ile-Lys-Ile-Pro-Val] | 0.5 % Vi /min | 6 µM | 87% | 0.342 | no significant effect | no effect
 | MHKLREGKWRPKSR [Scrambled peptide, reference compound] |  |  |  | 0.364 |  | no effect
